Experimental findings from patent US7432276B2, “ABCA1 elevating compounds” (CV Therapeutics, Inc., priority 2005, dated 2008) are described below.

The test system of the test is ABCA1 mRNA. The test is described as follows: ABCA1 mRNA induction in THP-1 cells, QuantiGene branched DNA assay. Type of test: cell-based. To be noted: 10 μM test compound, 18-20 hours; for fold induction at 10 µM: Homo sapiens, read-out: ABCA1 Induction Fold Increase over DMSO Vehicle. The method, boiled down: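 THP-1 cells, grown to subconfluence, treated with compounds at 10 and 3 μM in DMEM/BSA for 18–20 h. Lysates hybridized with ABCA1-specific probe 16–18 h at 53 °C; QuantiGene branched DNA luminescence gives fold increase over DMSO.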

Regarding `CCOC(=O)c1cnn(-c2ccc3c(c2)C(C)(C)[C@H]2COc4cccc(OC)c4[C@H]2N3)c1` [Number 135, ethyl 1-((6aR,12aS)-6a,7,12,12a-tetrahydro-1-methoxy-7,7-dimethyl-6H-chromeno[4,3-b]quinolin-9-yl)-1H-pyrazole-4-carboxylate], the fold induction at 10 µM was 6.4.
The same measure, in the same setting: with `COc1cc(I)cc2c1OC[C@H]1[C@@H]2Nc2ccc(-n3ncc(C(=O)O)c3C)cc2C1(C)C` [Number 178, 1-((6aR,12aS)-6a,7,12,12a-tetrahydro-2-iodo-4-methoxy-7,7-dimethyl-6H-chromeno[4,3-b]quinolin-9-yl)-5-methyl-1H-pyrazole-4-carboxylic acid] the figure was 5.1.
Take `COc1cccc2c1OC[C@@H]1[C@@H]2Nc2ccc(C(=O)N3CCS(=O)(=O)CC3)cc2C1(C)C` [Number 128, ((6aS,12aS)-6a,7,12,12a-tetrahydro-4-methoxy-7,7-dimethyl-6H-chromeno[4,3-b]quinolin-9-yl)(1,1-dione-1,4-thiazaperhydroin-yl)methanone]: the “ABCA1 Induction Fold Increase over DMSO Vehicle” value (“ABCA1 Induction Fold Increase” for short) stood at 2.7 FOLD INCREASE.
The same measure, in the same setting: with `COc1cccc2c1OCC1C2Nc2ccc(C(N)=S)cc2C1(C)C` (centres unmarked) [Number 58, amino(4-methoxy-7,7-dimethyl(7,12,12a,6a-tetrahydrochromano[4,3-b]quinolin-9-yl))methane-1-thione] the figure was 6.2 FOLD INCREASE.
On to `CCOC(=O)c1ccc(-c2ccc3c(c2)C(C)(C)[C@@H]2COc4cccc(OC)c4[C@H]2N3)cc1` [Number 96, ethyl 4-((12aS,6aS)-1-methoxy-7,7-dimethyl-7,12,12a,6a-tetrahydrochromano[4,3-b]quinolin-9-yl)benzoate], for which the “ABCA1 Induction Fold Increase” value was 7.6 FOLD INCREASE.
The same measure, in the same setting: to `CCOc1cccc2c1OCC1C2Nc2ccc(C(F)(F)F)cc2C1(C)C` (centres unmarked) [Number 41, 4-ethoxy-7,7-dimethyl-9-(trifluoromethyl)-7,12,12a,6a-tetrahydrochromano[4,3-b]quinoline] belongs 2.1 FOLD INCREASE.
On the same count and under the same terms, to `CCOc1cccc2c1OCC1C2Nc2ccc(C(C)=O)cc2C1(C)C` (centres unmarked) [Number 42, 1-(4-ethoxy-7,7-dimethyl-7,12,12a,6a-tetrahydrochromano[4,3-b]quinolin-9-yl)ethan-1-one] belongs 3.8 FOLD INCREASE; to `COc1cccc2c1[C@H]1Nc3ccc(-c4ccc(CO)cc4)cc3C(C)(C)[C@@H]1CO2` [Number 98, [4-((12aS,6aS)-1-methoxy-7,7-dimethyl-7,12,12a,6a-tetrahydrochromano[4,3-b]quinolin-9-yl)phenyl]methan-1-ol], 5.2 FOLD INCREASE.
With `CCS(=O)(=O)N1CCN(C(=O)c2ccc3c(c2)C(C)(C)[C@@H]2COc4c(OC)cccc4[C@H]2N3)CC1` [Number 133, ((6aS,12aS)-4-methoxy-6a,7,12,12a-tetrahydro-7,7-dimethyl-6H-chromeno[4,3-b]quinolin-9-yl)(4-ethanesulfonylpiperazin-1-yl)methanone], the fold induction at 10 µM came to 3.8.
Still for that read-out and setting: with `COc1cccc2c1[C@@H]1[C@H](CO2)C(C)(C)c2ccccc2N1CC(=O)O` [Number 154, 2-((6aR,12aS)-6a,7-dihydro-1-methoxy-7,7-dimethyl-6H-chromeno[4,3-b]quinolin-12(12aH)-yl)acetic acid] the figure was 9.4.
Take `COc1ccc2c(c1)C1Nc3ccc(C(O)(C(F)(F)F)C(F)(F)F)cc3C(C)(C)C1CO2` (centres unmarked) [Number 7, 1,1,1,3,3,3-hexafluoro-2-(2-methoxy-7,7-dimethyl(7,12,12a,6a-tetrahydrochromano[4,3-b]quinolin-9-yl))propan-2-ol]: the fold induction at 10 µM turned out to be 3.1.
Regarding `CC1(C)c2cc(C(O)(C(F)(F)F)C(F)(F)F)ccc2NC2c3cc(Br)ccc3OCC21` (centres unmarked) [Number 1, 2-(2-bromo-7,7-dimethyl(7,12,12a,6a-tetrahydrochromano[4,3-b]quinolin-9-yl))-1,1,1,3,3,3-hexafluoropropan-2-ol], the “ABCA1 Induction Fold Increase” value came to 4.4 FOLD INCREASE.
Still for that read-out and setting: to `COc1cccc2c1OC[C@@H]1[C@H]2Nc2ccc(F)cc2C1(C)C` [Number 48, (6aS,12aR)-9-fluoro-4-methoxy-7,7-dimethyl-7,12,12a,6a-tetrahydrochromano[4,3-b]quinoline] belongs 3.7 FOLD INCREASE.
In the case of `CCOP(=O)(Cc1ccc2c(c1)C(C)(C)[C@H]1COc3c(OC)cc(-c4cn[nH]c4)cc3[C@H]1N2)OCC` [Number 181, diethyl((6aR,12aS)-6a,7,12,12a-tetrahydro-4-methoxy-7,7-dimethyl-2-(1H-pyrazol-4-yl)-6H-chromeno[4,3-b]quinolin-9-yl)methylphosphonate], the fold induction at 10 µM came to 4.9.
For the compound `COC(=O)c1ccc2c(c1)C(C)(C)[C@H]1COc3cccc(OC)c3[C@H]1N2C` [Number 153, (6aR,12aS)-methyl 6a,7,12,12a-tetrahydro-1-methoxy-7,7,12-trimethyl-6H-chromeno[4,3-b]quinoline-9-carboxylate], the fold induction at 10 µM stood at 7.4.
For `COC(=O)/C=C/c1ccc2c(c1)C1Nc3ccc(C(O)(C(F)(F)F)C(F)(F)F)cc3C(C)(C)C1CO2` (centres unmarked) [Number 35, methyl (2E)-3-{7,7-dimethyl-9-[2,2,2-trifluoro-1-hydroxy-1-(trifluoromethyl)ethyl](7,12,12a,6a-tetrahydrochromano[4,3-b]quinolin-2-yl)}prop-2-enoate], the “ABCA1 Induction Fold Increase” value is listed as 4.3 FOLD INCREASE.
Still for that read-out and setting: to `COc1cccc2c1[C@H]1Nc3ccc(Cc4nnn[nH]4)cc3C(C)(C)[C@H]1CO2` [Number 84, (12aS,6aR)-1-methoxy-7,7-dimethyl-9-(1,2,3,4-tetraazol-5-ylmethyl)-7,12,12a,6a-tetrahydrochromano[4,3-b]quinoline] belongs 8.6 FOLD INCREASE.
Same read-out and setting: with `COc1ccc(Br)c2c1OCC1C2Nc2ccc(C(C)=O)cc2C1(C)C` (centres unmarked) [Number 80, 1-(1-bromo-4-methoxy-7,7-dimethyl-7,12,12a,6a-tetrahydrochromano[4,3-b]quinolin-9-yl)ethan-1-one] the figure was 4.3 FOLD INCREASE.
The same measure, in the same setting: with `COc1cccc2c1OC[C@@H]1[C@@H]2Nc2ccc(C(C)C)cc2C1(C)C` [Number 47, (12aS,6aS)-4-methoxy-7,7-dimethyl-9-(methylethyl)-7,12,12a,6a-tetrahydrochromano[4,3-b]quinoline] the figure was 3.6 FOLD INCREASE.
On to `COc1cccc2c1[C@H]1Nc3ccc(-c4nnn[nH]4)cc3C(C)(C)[C@H]1CO2` [Number 71, (12aS,6aR)-1-methoxy-7,7-dimethyl-9-(1,2,3,4-tetraazol-5-yl)-7,12,12a,6a-tetrahydrochromano[4,3-b]quinoline], for which the “ABCA1 Induction Fold Increase” value was determined as 9.5 FOLD INCREASE.
Same read-out and setting: with `COc1cccc2c1OC[C@@H]1[C@H]2Nc2ccc(CCC(=O)O)cc2C1(C)C` [Number 27, 3-((6aS,12aR)-4-methoxy-7,7-dimethyl-7,12,12a,6a-tetrahydrochromano[4,3-b]quinolin-9-yl)propanoic acid] the figure was 3.3 FOLD INCREASE; with `Cc1cc(Cl)cc2c1OCC1C2Nc2ccc(C(O)(C(F)(F)F)C(F)(F)F)cc2C1(C)C` (centres unmarked) [Number 69, 2-(2-chloro-4,7,7-trimethyl(7,12,12a,6a-tetrahydrochromano[4,3-b]quinolin-9-yl))-1,1,1,3,3,3-hexafluoropropan-2-ol], 2.6 FOLD INCREASE; with `COc1cccc2c1[C@H]1Nc3ccc(-n4cc(C(=O)N5CCS(=O)(=O)CC5)cn4)cc3C(C)(C)[C@H]1CO2` [Number 138, 1-((6aR,12aS)-6a,7,12,12a-tetrahydro-1-methoxy-7,7-dimethyl-6H-chromeno[4,3-b]quinolin-9-yl)1-1H-pyrazole-4-((1,1-dione-1,4-thiazaperhydroin-yl)methanone)], 7.4 FOLD INCREASE.
As to `COc1cccc2c1[C@H]1Nc3ccc(C(=O)N4CCNCC4)cc3C(C)(C)[C@H]1CO2` [Number 127, ((6aR,12aS)-6a,7,12,12a-tetrahydro-1-methoxy-7,7-dimethyl-6H-chromeno[4,3-b]quinolin-9-yl)(piperazin-1-yl)methanone], the fold induction at 10 µM is 5.1.
The same measure, in the same setting: to `CCCCN1c2ccccc2C(C)(C)[C@@H]2COc3cccc(OC)c3[C@H]21` [Number 175, (6aS,12aS)-12-butyl-6a,7,12,12a-tetrahydro-1-methoxy-7,7-dimethyl-6H-chromeno[4,3-b]quinoline] belongs 1.5.
With `COc1cccc2c1[C@H]1Nc3ccc(OC(F)(F)F)cc3C(C)(C)[C@H]1CO2` [Number 57, ((12aS,6aR)-1-methoxy-7,7-dimethyl(7,12,12a,6a-tetrahydrochromano[4,3-b]quinolin-9-yloxy))trifluoromethane], the “ABCA1 Induction Fold Increase” value turned out to be 6.1 FOLD INCREASE.
In the case of `COc1cccc2c1[C@H]1Nc3ccc(-n4cc(C(=O)N(C)C)cn4)cc3C(C)(C)[C@H]1CO2` [Number 137, 1-((6aR,12aS)-6a,7,12,12a-tetrahydro-1-methoxy-7,7-dimethyl-6H-chromeno[4,3-b]quinolin-9-yl)-N,N-dimethyl-1H-pyrazole-4-carboxamide], the fold induction at 10 µM was determined as 7.
As to `CCS(=O)(=O)N1CCN(C(=O)c2coc(-c3ccc4c(c3)C(C)(C)[C@H]3COc5cccc(F)c5[C@H]3N4)n2)CC1` [Number 142, 2-((6aR,12aS)-1-fluoro-6a,7,12,12a-tetrahydro-7,7-dimethyl-6H-chromeno[4,3-b]quinolin-9-yl)oxazole-(4-(4-ethanesulfonylpiperazin-1-yl)methanone)], the “ABCA1 Induction Fold Increase” value was found to be 5 FOLD INCREASE.
The same measure, in the same setting: to `Cc1cccc2c1OCC1[C@@H]2Nc2ccccc2C1(C)C` (stereo partly drawn) [Number 32, (12aS)-4,7,7-trimethyl-7,12,12a,6a-tetrahydrochromano[4,3-b]quinoline] belongs 4.9 FOLD INCREASE.
